Measured values taken from PubChem BioAssay (NCI).
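Results reflect a 48-hour exposure of cells in 96-well plates to compound at five concentrations. GI50: concentration for 50% inhibition of growth. TGI marks complete inhibition of growth.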

How the values were obtained:
Assay in all cases: DTP human tumour cell line panel, 48 h
[1] = system: OVCAR-3 ovarian
[2] = system: TK-10 renal
[3] = system: UACC-62 melanoma
[4] = system: SN12C renal
[5] = system: M19-MEL melanoma
[6] = system: HCT-116 colon
[7] = system: DLD-1 colon
[8] = system: CCRF-CEM leukemia
[9] = system: MDA-MB-435
[10] = system: PC-3 prostate

Row | SMILES | TGI [1] | TGI [2] | TGI [3] | TGI [4] | TGI [5] | TGI [6] | TGI [7] | TGI [8] | TGI [9] | TGI [10] | GI50 [9] | GI50 [1] | GI50 [2] | GI50 [10] | GI50 [3] | GI50 [4] | GI50 [6] | GI50 [8] | GI50 [5]
1 | C[C@@]12CCCC(=O)N1[C@@H](CO)C(c1ccccc1)O2 (stereo partly specified) | > 100 µM | > 100 µM | > 100 µM | > 100 µM | > 100 µM | > 100 µM | > 100 µM | – | – | – | – | – | – | – | – | – | – | – | –
2 | COC(=O)c1cc2c3c(ccc2[nH]1)N(C(=O)c1cc2c4c(ccc2[nH]1)N(C(=O)c1cc2c5c(ccc2[nH]1)N(C(N)=O)CC5)CC4)CC3 | > 28.9 µM | 47 µM | > 19.8 µM | 49.4 µM | – | > 100 µM | > 100 µM | > 51.2 µM | – | – | – | – | – | – | – | – | – | – | –
3 | O=C(O)Cn1ccnc1[N+](=O)[O-] | > 100 µM | > 100 µM | > 100 µM | > 100 µM | – | > 100 µM | – | > 100 µM | > 100 µM | > 100 µM | – | – | – | – | – | – | – | – | –
4 | O=C(Nc1ccccc1O)c1ccc(CNC(=O)c2ccsc2Nc2ccnc(C(F)(F)F)c2)cc1 | 4.8 µM | 9.33 µM | 4.83 µM | 79.3 µM | – | 3.36 µM | – | > 100 µM | 6.54 µM | 20.8 µM | 2.19 µM | 1.85 µM | 2.1 µM | 1.94 µM | 1.43 µM | 4.13 µM | 1.34 µM | 0.32 µM | –
5 | CC(=O)[CH-]C(=O)c1ccccc1.CC(=O)[CH-]C(=O)c1ccccc1.[CH2-]CCC.[CH2-]CCC.[Sn+4] | 2.62 µM | 2.31 µM | 2.17 µM | 2.68 µM | 1.96 µM | 2.78 µM | – | 0.745 µM | – | – | – | 1.3 µM | 1.06 µM | – | 0.754 µM | 1.14 µM | 1.38 µM | 0.261 µM | 0.632 µM
6 | CC1(C)C2CCC13C(=O)C1OC3(C2)C2C(=O)c3c(O)cccc3C(=O)C12 (stereo unspecified) | 0.648 µM | 2.83 µM | 0.403 µM | 1.84 µM | – | 2.3 µM | – | 1.14 µM | 2.5 µM | 3.09 µM | 0.818 µM | 0.18 µM | 0.979 µM | 0.835 µM | 0.2 µM | 0.711 µM | 1.09 µM | 0.212 µM | –
7 | CCOCNc1ccc(N2C(=O)/C(=C/c3ccc(N(CC)CC)cc3)N=C2c2ccccc2)cc1 | > 100 µM | > 100 µM | 37.1 µM | > 100 µM | – | 53.4 µM | – | > 100 µM | > 100 µM | > 100 µM | 69.1 µM | 28.3 µM | 22.3 µM | 5.83 µM | 3.93 µM | 16.6 µM | 2.4 µM | 3.55 µM | –
8 | CCCn1cnc2c(SCc3ccccc3)nc(N)nc21 | > 100 µM | > 100 µM | > 100 µM | > 100 µM | – | > 100 µM | – | > 100 µM | > 100 µM | > 100 µM | > 100 µM | > 100 µM | 80.5 µM | 67.9 µM | > 100 µM | > 100 µM | 63 µM | 72.9 µM | –
9 | COc1ccc(/C=C(/C(=O)n2cnnn2)c2cc(OC)c(OC)c(OC)c2)cc1 | 5.94 µM | > 100 µM | > 100 µM | > 100 µM | – | > 100 µM | – | > 100 µM | 3.24 µM | > 100 µM | 0.614 µM | 2.37 µM | 7.59 µM | 4.03 µM | 3.1 µM | 5.15 µM | 3.08 µM | 3.44 µM | –
